Legend:
[1] = tested on: ATP-induced IL-1β production; test: IL-1β production assay, ELISA method (ATP-induced IL-1β production by LPS-activated human monocytes); assay type: cell-based; details: for ATP-induced IL-1β production: human monocytes treated continuously with agent, FIG. 2A
Experimental: IL-1β production assay—ELISA method. Human monocytes were isolated from heparinized blood collected from normal volunteers. 100 ml of blood was diluted with 20 ml of RPMI 1640 medium that contained 5% FBS, 25 mM Hepes, pH 7.3, 2 mM glutamine, and 1% penicillin/streptomycin (Maintenance Medium). 30 ml of this suspension then was layered onto 15 ml of Lymphocyte Separation Medium (Organo Technicon) and centrifuged for 30 min at 1400 rpm at room temperature in a clinical centrifuge. The resulting mononuclear cell layer was harvested, diluted with Maintenance Medium, and the cells were pelleted by centrifugation. The recovered cells were washed with Maintenance Medium by repeated centrifugation. Each well of a 96 well plate was seeded with 2×10^5 mononuclear cells in 0.1 ml of Maintenance Medium; monocytes were allowed to adhere for 2 hr, then the medium (containing non-adherent cells) was replaced with 0.1 ml of fresh medium, and the monocytes were incubated overnight at 37° C. Monocytes were activated with 10 ng/ml of LPS (E. coli; serotype 055:B5) for 2 hr after which the medium was replaced with 0.1 ml of RPMI 1640, 20 mM Hepes, pH 6.9, 100 units/ml penicillin, 100 μg/ml streptomycin, 1% FBS (Release Medium) containing the indicated concentration of test agent; compounds were dissolved in DMSO and the final DMSO concentration in all wells was maintained at 0.2%. […] Cells subsequently were removed by centrifugation, media supernatants were harvested, and IL-1β levels within the media samples were determined with a specific ELISA kit (R and D Systems); each data point is the average of quadruplicate determinations.

[2] = tested on: soluble polypeptides of human monocytes (31, 32, 56 kDa); test: Identification of DASU binding proteins: labeling of monocyte polypeptides by [14C]DASUs; details: [14C]labeled ligand 100 nM to 10 μm; FIG. 3
Experimental: Identification of DASU binding proteins. Human monocytes (isolated as described above and plated on 6 cm dishes) were treated with [^14C]Compound 1 in 3 ml of Release Medium (devoid of FBS) for 60 min after which cells were washed twice with 5 ml of Release Medium containing 5% FBS and suspended in 1 ml of 25 mM Hepes, pH 7, 150 mM NaCl, 1 μg/ml pepstatin, 1 μg/ml leupeptin, containing 0.5% saponin. Lysates were clarified by ultracentrifugation and the recovered soluble fractions were exchanged into 10 mM Tris, pH 8, containing 1 μg/ml each of pepstatin and leupeptin with the use of Centricon 30 concentration units. Final concentrates were lyophilized and then solubilized in SDS sample buffer.

[3] = molecular target: bacterial glutathione S-transferase (Schistosoma japonicum, UniProt P08515); assay type: binding; details: identical conditions; FIG. 7A
Excerpt: (§1) Labeling rDBPs. […].

rDBP-32 = molecular target: T1, rDBP-32 (Homo sapiens, UniProt O00299); test: Labeling rDBPs with [14C]Compound 2 (SDS PAGE, phosphorimager); assay type: binding; details: FIG. 7A
T1 construct: cleaved with thrombin to yield full-length rDBP-31 and rDBP-32 polypeptides; GST (N, cleaved yes); made in house; host or cells: E. coli (as for DBP-31: BL21 [DE3], pGEX2T)
Excerpt: as §1

[4] = tested on: porcine liver carboxylesterase; test: in vitro carboxylesterase enzyme assay with p-nitrophenyl propionate; details: co-incubation with 100 μM

Sequence of bacterial glutathione S-transferase (P08515 2-218 limits assumed): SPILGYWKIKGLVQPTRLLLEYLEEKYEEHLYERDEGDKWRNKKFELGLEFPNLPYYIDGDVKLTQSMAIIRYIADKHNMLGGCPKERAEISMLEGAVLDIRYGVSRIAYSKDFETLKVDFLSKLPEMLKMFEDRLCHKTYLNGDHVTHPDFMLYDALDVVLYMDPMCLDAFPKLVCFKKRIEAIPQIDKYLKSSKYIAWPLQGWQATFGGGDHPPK

O=[N+]([O-])c1ccc(OCC2CO2)cc1 (centres unmarked) [2-(4-nitro-phenoxymethyl)-oxirane, reference compound]
ATP-induced IL-1β production [1]: did not inhibit

CC(C)c1cc(Cl)cc(C(C)C)c1NC(=O)NS(=O)(=O)c1cc(C2CO2)ccc1F (centres unmarked) [Compound 1, 1-(4-Chloro-2,6-diisopropyl-phenyl)-3-[2-fluoro-5-oxiranylbenzene-sulfonyl]-urea]
melting point: 126 to 130 °C
IL-1 production of [14C]DASU-treated cells exposed to ATP ([1]; FIG. 3B): dose-dependent inhibition
ATP-induced IL-1β production [1]: dose-dependent inhibition
radiolabeled polypeptides in soluble fraction of monocyte extracts [2]: several radiolabeled polypeptides were detected

O=C(Nc1c2c(cc3c1CCC3)CCC2)NS(=O)(=O)c1cc(C2CO2)ccc1F (centres unmarked) [Compound 2, 1-(1,2,3,5,6,7-Hexahydro-s-indacen-4-yl)-3-[2-fluoro-5-oxiranyl-benzenesulfonyl]-urea]
labeling of bacterial glutathione S-transferase [3]: not labeled
labeling of rDBP-32 (rDBP-32): labeled by [^14C]Compound 2 in a concentration dependent manner
reduction of observed carboxylesterase enzymatic activity [4]: 67%
ATP-induced IL-1β production [1]: dose-dependent inhibition
IL-1β production after pretreatment and ATP in absence of compound ([1]; pretreated 60 min, then ATP without compound, FIG. 2B): remained suppressed
radiolabeled polypeptides in soluble fraction of monocyte extracts [2]: several radiolabeled polypeptides were detected

Reference: patent publication US6461822B2, “Methods of screening compounds for their ability to inhibit the production of inflammatory cytokines” (Pfizer Inc., priority 1998, dated 2002)
